Data published in patent publication US10952992B2, “Methods of treating intraocular pressure with activators of Tie-2” (Aerpio Pharmaceuticals, Inc., priority 2015, dated 2021).
Values joined by “and” are separate entries in the source; they are usually repeats but may differ in a detail not shown here. Identical values can stand only once.

Columns and labels:
[1] = tested on: intraocular pressure in normotensive New Zealand White rabbits; assay: Example 3 intraocular pressure after repeated topical and subcutaneous administration (pneumotonometer); format: in vivo; parameters: IOP, individual animal / IOP, group Average: unit not given here
Experimental: To measure the tolerability and effect of Compound 1 (sodium salt) on intraocular pressure following repeated topical and subcutaneous administration, normotensive New Zealand White rabbits were treated with Compound 1 (sodium salt). Animals were acclimated 1 to 2 times per day to the intraocular pressure (IOP) measurement procedures prior to initiation of the study to determine baseline IOP levels. IOP acclimation was performed in the two weeks prior to study start for a total of 5 days. Animals with unacceptable IOP values were excluded from the study. Prior to taking all IOP measurements, 1 to 2 drops of a 0.5% proparacaine solution were applied to the eye as a topical anesthetic. OP measurements were performed with a pneumotonometer. Test and control formulations were administered to the animals once or twice daily topically into both eyes or subcutaneously starting on Day 1 according to TABLE 20 and TABLE 21 below. PM dosing, where applicable, was performed ˜8 hours after AM dosing. IOP measurements were performed twice (AM and PM) at baseline (prior to the start of dosing), twice (AM and PM) on Days 1 and 7, and once daily (AM) on Days 2-6 and Day 8. Prior to taking all IOP measurements, 1 to 2 drops of a 0.5% proparacaine solution were applied to the eye as a topical anesthetic. IOP measurements were performed with a pneumotonometer. AM IOP measurements were performed 2 hours after AM dosing; the only exceptions were Day 8 AM measurements, which were performed 24 hours after the final dose. PM IOP measurements were performed ˜5 hours (baseline and Day 1) or ˜4 hours (Day 7) after AM IOP measurements, prior to PM dosing, with at least 15 minutes elapsing between anesthetic application for PM IOP measurements and PM dosing. The final round of slit-lamp examinations was performed on Day 8.

[2] = In vitro diffusion across rabbit cornea and sclera in Franz cell; format: in vitro ADME; details: 1.5% of the sodium salt with 5% HPβCD in 50:50 D5W:sterile water
[3] = Group 3: 1.2 mg/eye topical sodium salt BID, Day 5, AM, OD
[4] = Group 3: 1.2 mg/eye topical sodium salt BID, Day 5, AM, OS

Compound: COC(=O)N[C@@H](Cc1ccccc1)C(=O)N[C@@H](Cc1ccc(NS(=O)(=O)O)cc1)c1csc(-c2cccs2)n1 [Compound 1]
- IOP, group Average [1, 3]: 21.5
- IOP, individual animal [1, 3]: 21.5 and 18.8 and 22.3 and 21.2
- IOP, group Average [1, 4]: 22.0
- IOP, individual animal [1, 4]: 22.3 and 19.8 and 23.5 and 20.7
- IOP, group Average ([1]; Group 3: 1.2 mg/eye topical sodium salt BID, Day 6, AM, OD): 24.2
- IOP, group Average ([1]; Group 3: 1.2 mg/eye topical sodium salt BID, Day 6, AM, OS): 24.7
- IOP, group Average ([1]; Group 3: 1.2 mg/eye topical sodium salt BID, Day 7, AM, OD): 21.3
- IOP, group Average ([1]; Group 3: 1.2 mg/eye topical sodium salt BID, Day 7, AM, OS): 22.0
- IOP, group Average ([1]; Group 3: 1.2 mg/eye topical sodium salt BID, Day 7, PM, OD): 23.7
- IOP, group Average ([1]; Group 3: 1.2 mg/eye topical sodium salt BID, Day 7, PM, OS): 24.2
- IOP, group Average ([1]; Group 3: 1.2 mg/eye topical sodium salt BID, Day 8, AM (24 hours after final dose), OD): 23.4
- IOP, group Average ([1]; Group 3: 1.2 mg/eye topical sodium salt BID, Day 8, AM (24 hours after final dose), OS): 23.9
- IOP, group Average ([1]; Group 4: 1.2 mg/eye topical sodium salt QD, Day 1, AM, OD): 21.2
- IOP, group Average ([1]; Group 4: 1.2 mg/eye topical sodium salt QD, Day 1, AM, OS): 21.4
- IOP, group Average ([1]; Group 4: 1.2 mg/eye topical sodium salt QD, Day 1, PM, OD): 23.1
- IOP, group Average ([1]; Group 4: 1.2 mg/eye topical sodium salt QD, Day 1, PM, OS): 23.2
- IOP, group Average ([1]; Group 4: 1.2 mg/eye topical sodium salt QD, Day 2, AM, OD): 20.0
- IOP, group Average ([1]; Group 4: 1.2 mg/eye topical sodium salt QD, Day 2, AM, OS): 20.1
- IOP, group Average ([1]; Group 4: 1.2 mg/eye topical sodium salt QD, Day 3, AM, OD): 20.8
- IOP, group Average ([1]; Group 4: 1.2 mg/eye topical sodium salt QD, Day 3, AM, OS): 20.9
- IOP, group Average ([1]; Group 4: 1.2 mg/eye topical sodium salt QD, Day 4, AM, OD): 21.6
- IOP, group Average ([1]; Group 4: 1.2 mg/eye topical sodium salt QD, Day 4, AM, OS): 22.6
- IOP, group Average ([1]; Group 4: 1.2 mg/eye topical sodium salt QD, Day 5, AM, OD): 21.0
- IOP, group Average ([1]; Group 4: 1.2 mg/eye topical sodium salt QD, Day 5, AM, OS): 21.2
- IOP, group Average ([1]; Group 4: 1.2 mg/eye topical sodium salt QD, Day 6, AM, OD): 22.5
- IOP, group Average ([1]; Group 4: 1.2 mg/eye topical sodium salt QD, Day 6, AM, OS): 23.2
- IOP, group Average ([1]; Group 4: 1.2 mg/eye topical sodium salt QD, Day 7, AM, OD): 22.6
- IOP, group Average ([1]; Group 4: 1.2 mg/eye topical sodium salt QD, Day 7, AM, OS): 23.0
- IOP, group Average ([1]; Group 4: 1.2 mg/eye topical sodium salt QD, Day 7, PM, OD): 24.6
- IOP, group Average ([1]; Group 4: 1.2 mg/eye topical sodium salt QD, Day 7, PM, OS): 24.7
- IOP, group Average ([1]; Group 4: 1.2 mg/eye topical sodium salt QD, Day 8, AM (24 hours after final dose), OD): 22.7
- IOP, group Average ([1]; Group 4: 1.2 mg/eye topical sodium salt QD, Day 8, AM (24 hours after final dose), OS): 22.8
- IOP, group Average ([1]; Group 5: 10 mg/kg subcutaneous sodium salt BID, Day 1, AM, OD): 22.3
- IOP, group Average ([1]; Group 5: 10 mg/kg subcutaneous sodium salt BID, Day 1, AM, OS): 23.6
- IOP, group Average ([1]; Group 5: 10 mg/kg subcutaneous sodium salt BID, Day 1, PM, OD): 23.3
- IOP, group Average ([1]; Group 5: 10 mg/kg subcutaneous sodium salt BID, Day 1, PM, OS): 23.6
- IOP, group Average ([1]; Group 5: 10 mg/kg subcutaneous sodium salt BID, Day 2, AM, OD): 21.5
- IOP, group Average ([1]; Group 5: 10 mg/kg subcutaneous sodium salt BID, Day 2, AM, OS): 21.7
- IOP, group Average ([1]; Group 5: 10 mg/kg subcutaneous sodium salt BID, Day 3, AM, OD): 20.7
- IOP, group Average ([1]; Group 5: 10 mg/kg subcutaneous sodium salt BID, Day 3, AM, OS): 21.3
- IOP, group Average ([1]; Group 5: 10 mg/kg subcutaneous sodium salt BID, Day 4, AM, OD): 21.9
- IOP, group Average ([1]; Group 5: 10 mg/kg subcutaneous sodium salt BID, Day 4, AM, OS): 22.2
- IOP, group Average ([1]; Group 5: 10 mg/kg subcutaneous sodium salt BID, Day 5, AM, OD): 22.4
- IOP, group Average ([1]; Group 5: 10 mg/kg subcutaneous sodium salt BID, Day 5, AM, OS): 23.4
- IOP, group Average ([1]; Group 5: 10 mg/kg subcutaneous sodium salt BID, Day 6, AM, OD): 24.5
- IOP, group Average ([1]; Group 5: 10 mg/kg subcutaneous sodium salt BID, Day 6, AM, OS): 25.0
- IOP, group Average ([1]; Group 5: 10 mg/kg subcutaneous sodium salt BID, Day 7, AM, OD): 23.9
- IOP, group Average ([1]; Group 5: 10 mg/kg subcutaneous sodium salt BID, Day 7, AM, OS): 23.9
- IOP, group Average ([1]; Group 5: 10 mg/kg subcutaneous sodium salt BID, Day 7, PM, OD): 24.1
- IOP, group Average ([1]; Group 5: 10 mg/kg subcutaneous sodium salt BID, Day 7, PM, OS): 24.3
- IOP, group Average ([1]; Group 5: 10 mg/kg subcutaneous sodium salt BID, Day 8, AM (24 hours after final dose), OD): 24.5
- IOP, group Average ([1]; Group 5: 10 mg/kg subcutaneous sodium salt BID, Day 8, AM (24 hours after final dose), OS): 24.0
- diffusion across rabbit cornea and sclera in Franz cell [2]: substantial diffusion
